Reference: patent US11970448B2, “Monomers capable of dimerizing in an aqueous solution, and methods of using same” (CORNELL UNIVERSITY, priority 2011, dated 2024)
Like-named read-outs stand apart in the source and are kept apart here.

Target: T1, recominbant human tryptase, beta, from lung (Homo sapiens, UniProt P20231)
T1 construct: purchased Promega or Enzo Life Sciences G5631 or BML-SE418
Assay: Inhibition of tryptase activity by monomers and multimers (Boc-Gln-Ala-Arg-AMC fluorescence)
Format: biochemical
Conditions: monomers against tryptase
Protocol: Stock solutions of recominbant human tryptase, beta, from lung (Promega: catalog number G5631, or Enzo Life Sciences: catalog number BML-SE418) were made at 30 μM, in solution with 5 μM heparin sulfate and 1 M NaCl. Monomer tryptase inhibitor stock solutions were made at 50 mM in DMSO. Test substance plates were made at 1.2× the final concentration in assay buffer (50 mM HEPES, 150 mM NaCl, 100 μM EDTA, pH 7.4, 0.02% Tween-20). A final concentration of 1 nM tryptase was used. When required, test substances were diluted in water immediately before use in 10-fold serial dilutions. After the indicated incubation time, the test subtance-tryptase solution at 1.2× concentration, was diluted into assay buffer containing a final concentration of 200 μM N-tert-butoxycarbonyl-Gln-Ala-Arg-AMC HBr [AMC=7-amino-4-methylcoumarin] (Boc-Gln-Ala-Arg-AMC; Enzo Life Sciences: catalog number BML-P237) to a final volume of 50 μl in black opaque round bottom 96 well plates (Corning, catalog number 3792). The release of fluorescent AMC was immediately measured every 30 seconds over 15-30 minutes at an excitation wavelength of 367 nm, monitoring emission at 468 nm on a Spectramax M5 (Molecular Devices) microplate reader. The Softmax Pro (Molecular Devices) and Graphpad prism software were used to determine Vmax, and concentration-response curve IC50s, respectively.

[1] = Table 5, read-out: Monomer IC50 range
[2] = read-out: IC50 range group of additional monomers (boronic acid, benzooxaborole, ligands)

T1 sequence (P20231 31-275): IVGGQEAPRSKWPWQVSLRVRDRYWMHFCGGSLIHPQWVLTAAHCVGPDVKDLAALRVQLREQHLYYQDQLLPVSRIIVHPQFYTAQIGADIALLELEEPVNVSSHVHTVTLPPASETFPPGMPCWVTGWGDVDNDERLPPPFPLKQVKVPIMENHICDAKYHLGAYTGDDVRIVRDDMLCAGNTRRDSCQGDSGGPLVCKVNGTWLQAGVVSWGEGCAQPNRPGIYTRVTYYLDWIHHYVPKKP

Row | Compound | IC50 [1] [nM] | IC50 [2] [nM] | IC50 (entry marked (1:10), read-out: IC50 range group of additional monomers marked (1:10)) [nM]
1 | NCc1cccc(C2CCN(C(=O)Cc3ccc(O)c(F)c3)CC2)c1 [T54A, 1-(4-(3-(aminomethyl)phenyl)piperidin-1-yl)-2-(3-fluoro-4-hydroxyphenyl)ethanone] | 1000 to 10000 | – | –
2 | NCc1ccc2c(c1)C1(CCN(C(=O)Cc3ccc(B(O)O)c(F)c3)CC1)CO2 [T54BASPIRO] | – | 1000 to 10000 | –
3 | NCc1cccc(C2CCN(C(=O)Cc3ccc(B(O)O)c(F)c3)CC2)c1 [T54BA] | – | 1000 to 10000 | –
4 | CC(C)(C)OC(=O)NCc1cccc(C2CCN(C(=O)c3cccc(NC(=O)C(=O)C(C)(C)O)c3)CC2)c1 [T55, tert-butyl 3-(1-(3-(3-hydroxy-3-methyl-2-oxobutanamido)benzoyl)piperidin-4-yl)benzylcarbamate] | 0.1 to 1000 | – | –
5 | CC(C)(C)OC(=O)NCc1cccc(C2CCN(C(=O)c3cccc(NC(=O)C(O)C(C)(C)O)c3)CC2)c1 (centres unmarked) [T55D, tert-butyl 3-(1-(3-(2,3-dihydroxy-3-methylbutanamido)benzoyl)piperidin-4-yl)benzylcarbamate] | 0.1 to 1000 | – | 0.1 to 1000
6 | NCc1cccc(C2CCN(C(=O)c3cc4c(B(O)O)cccc4s3)CC2)c1 [T56, 2-(4-(3-(aminomethyl)phenyl)piperidine-1-carbonyl)benzo[b]thiophen-4-ylboronic acid] | 0.1 to 1000 | 0.1 to 1000 | –
7 | NCc1cccc(C2CCN(C(=O)c3cc4c(Br)cccc4s3)CC2)c1 [T56A, (4-(3-(aminomethyl)phenyl)piperidin-1-yl)(4-bromobenzo[b]thiophen-2-yl)methanone] | 0.1 to 1000 | – | –
8 | NCc1cccc(C2CCN(C(=O)Cc3cc(B(O)O)ccc3F)CC2)c1 [T57, 3-(2-(4-(3-(aminomethyl)phenyl)piperidin-1-yl)-2-oxoethyl)-4-fluorophenylboronic acid] | 1000 to 10000 | 1000 to 10000 | –
9 | NCc1cccc(C2CCN(C(=O)Cc3ccc(B(O)O)cc3F)CC2)c1 [T58, 4-(2-(4-(3-(aminomethyl)phenyl)piperidin-1-yl)-2-oxoethyl)-3-fluorophenylboronic acid] | 1000 to 10000 | 1000 to 10000 | –
10 | NCc1cccc(C2CCN(C(=O)c3cc4ccc(B(O)O)cc4[nH]3)CC2)c1 [T59, 2-(4-(3-(aminomethyl)phenyl)piperidine-1-carbonyl)-1H-indol-6-ylboronic acid] | 1000 to 10000 | 1000 to 10000 | –
11 | NCc1cccc(C2CCN(C(=O)c3ccc(O)c(CO)c3)CC2)c1 [T65, (4-(3-(aminomethyl)phenyl)piperidin-1-yl)(4-hydroxy-3-(hydroxymethyl)phenyl)methanone] | 0.1 to 1000 | 0.1 to 1000 | –
12 | NCc1cccc(C2CCN(C(=O)c3ccc(O)c(C(N)=O)c3)CC2)c1 [T66, 5-(4-(3-(aminomethyl)phenyl)piperidine-1-carbonyl)-2-hydroxybenzamide] | 0.1 to 1000 | 0.1 to 1000 | –
13 | CC1(O)CN(c2cccc(C(=O)N3CCC(c4cccc(CN)c4)CC3)c2)CC1(C)O (centres unmarked) [T67, (4-(3-(aminomethyl)phenyl)piperidin-1-yl)(3-(3,4-dihydroxy-3,4-dimethylpyrrolidin-1-yl)phenyl)methanone] | 0.1 to 1000 | 0.1 to 1000 | –
14 | NCc1cccc(C2CCN(C(=O)c3ccc(O)c(O)c3O)CC2)c1 [T68, (4-(3-(aminomethyl)phenyl)piperidin-1-yl)(2,3,4-trihydroxyphenyl)methanone] | 1000 to 10000 | 1000 to 10000 | –
15 | NCc1cccc(C2CCN(C(=O)c3cc(O)c(O)c(O)c3)CC2)c1 [T69, (4-(3-(aminomethyl)phenyl)piperidin-1-yl)(3,4,5-trihydroxyphenyl)methanone] | 1000 to 10000 | 1000 to 10000 | –
16 | NCc1cccc(C2CCN(C(=O)c3cccc(NC(=O)c4cccc(O)c4O)c3)CC2)c1 [T70, N-(3-(4-(3-(aminomethyl)phenyl)piperidine-1-carbonyl)phenyl)-2,3-dihydroxybenzamide] | 0.1 to 1000 | 0.1 to 1000 | –
17 | NCc1cccc(C2CCN(C(=O)c3cccc(NC(=O)c4ccc(O)c(O)c4)c3)CC2)c1 [T71, N-(3-(4-(3-(aminomethyl)phenyl)piperidine-1-carbonyl)phenyl)-3,4-dihydroxybenzamide] | 0.1 to 1000 | 0.1 to 1000 | –
